Laboratory results from patent US20230062119A1, “USE OF BIOMARKERS IN IDENTIFYING PATIENTS THAT WILL BE RESPONSIVE TO TREATMENT WITH A PRMT5 INHIBITOR” (Merck Sharp & Dohme LLC, priority 2019, published 2023).
Read-outs that look alike come from different tables or passages of the source.

Target: T1, Full-length (FL)-PRMT5-MEP50 enzyme complex (Homo sapiens, UniProt O14744)
T1 construct: Full-length (FL)-PRMT5-MEP50 enzyme complex (recombinant proteins from baculovirus-transfected Sf21 cells: FL-PRMT5; MW=73837 kDa and FL-MEP50; MW=38614); made in house; host or cells: baculovirus-transfected Sf21 insect cells
T1 sequence (O14744 whole entry): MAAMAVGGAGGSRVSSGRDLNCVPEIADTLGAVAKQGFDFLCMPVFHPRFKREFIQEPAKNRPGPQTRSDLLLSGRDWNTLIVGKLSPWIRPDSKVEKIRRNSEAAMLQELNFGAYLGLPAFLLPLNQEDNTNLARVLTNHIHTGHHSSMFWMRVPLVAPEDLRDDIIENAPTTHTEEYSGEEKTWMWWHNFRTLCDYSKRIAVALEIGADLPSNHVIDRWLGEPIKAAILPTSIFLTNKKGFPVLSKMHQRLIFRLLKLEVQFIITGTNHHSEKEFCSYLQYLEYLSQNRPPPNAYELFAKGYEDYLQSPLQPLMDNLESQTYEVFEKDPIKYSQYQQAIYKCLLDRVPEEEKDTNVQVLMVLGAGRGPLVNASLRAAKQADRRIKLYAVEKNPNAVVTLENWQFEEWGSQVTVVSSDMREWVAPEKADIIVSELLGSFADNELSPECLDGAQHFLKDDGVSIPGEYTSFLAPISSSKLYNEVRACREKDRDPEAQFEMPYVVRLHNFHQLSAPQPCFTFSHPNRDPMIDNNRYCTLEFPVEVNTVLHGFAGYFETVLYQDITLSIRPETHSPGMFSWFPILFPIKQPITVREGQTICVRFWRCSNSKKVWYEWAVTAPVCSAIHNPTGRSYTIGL
T1 sequence (Q9BQA1 whole entry partner): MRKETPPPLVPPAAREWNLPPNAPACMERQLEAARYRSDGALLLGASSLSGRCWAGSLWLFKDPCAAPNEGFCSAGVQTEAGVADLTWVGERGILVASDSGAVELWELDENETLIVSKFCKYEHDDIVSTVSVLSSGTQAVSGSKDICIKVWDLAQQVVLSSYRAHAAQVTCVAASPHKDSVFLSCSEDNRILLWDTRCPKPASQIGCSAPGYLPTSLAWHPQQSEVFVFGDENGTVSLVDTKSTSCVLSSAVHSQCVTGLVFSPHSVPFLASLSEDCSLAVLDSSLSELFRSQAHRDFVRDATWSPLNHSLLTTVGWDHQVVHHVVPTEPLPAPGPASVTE
Assay: PRMT5-MEP50 Enzyme Methylation Assay
Format: biochemical
Conditions: 1.0 nM PRMT5-MEP50, 75 nM biotinylated peptide, 15 μM SAM
Procedure, shortened: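 Compound was pre-incubated 60 min at 37°C with 1.0 nM enzyme and 15 μM SAM (final) in 50 mM Bicine pH 8.0, then 75 nM biotinylated H4R3(Me1) peptide was added and reacted 150 min; twenty-point 1:2 titration from 100000 nM, 1% DMSO. Formic acid quench; SAMDI mass spectrometry measured Me1-to-Me2 conversion, EC50 by 4- or 7-parameter regression.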

[1] = one EC50: 4 parameters single site sigmoidal model, EC50 1: first value of 7 parameters biphasic model, read-out: Enzyme Methylation Assay (EC50 or EC50 1)
[2] = second EC50 of 7 parameters biphasic model, read-out: Enzyme Methylation Assay (EC50 2)

EC50 [1] [nM]	EC50 [2] [nM]	Compound
0.3		Nc1nc2cc(O[C@H]3CC[C@@]4(O)[C@@H]3O[C@@H](n3cc(F)c5c(N)ncnc53)[C@@H]4O)ccc2cc1Cl [Example 74, (2R,3R,3aS,6S,6aR)-6-((2-amino-3-chloroquinolin-7-yl)oxy)-2-(4-amino-5-fluoro-7H-pyrrolo[2,3-d]pyrimidin-7-yl)hexahydro-3aH-cyclopenta[b]furan-3,3a-diol]
0.4		Cc1ncnc2c1ccn2[C@@H]1C[C@@H]2[C@H](Cc3ccc4cc(Br)c(N)nc4c3)CC[C@]2(O)[C@H]1O [Example 19, (1S,2R,3aR,4S,6aR)-4-((2-amino-3-bromoquinolin-7-yl)methyl)-2-(4-methyl-7H-pyrrolo[2,3-d]pyrimidin-7-yl)hexahydropentalene-1,6a(1H)-diol]
0.5		Nc1nc2cc(C[C@@H]3CC[C@@]4(O)[C@@H]3O[C@@H](n3ccc5c(N)nc(Cl)nc53)[C@@H]4O)ccc2cc1F [Example 48, (2R,3R,3aS,6S,6aR)-2-(4-amino-2-chloro-7H-pyrrolo[2,3-d]pyrimidin-7-yl)-6-[(2-amino-3-fluoroquinolin-7-yl)methyl]hexahydro-3aH-cyclopenta[b]furan-3,3a-diol]
0.4		Cc1cn([C@@H]2C[C@@H]3[C@H](Cc4ccc5cc(Br)c(N)nc5c4)CC[C@]3(O)[C@H]2O)c2ncnc(N)c12 [Example 40, (1S,2R,3aR,4S,6aR)-4-((2-amino-3-bromoquinolin-7-yl)methyl)-2-(4-amino-5-methyl-7H-pyrrolo[2,3-d]pyrimidin-7-yl)hexahydropentalene-1,6a(1H)-diol]
0.5	110	CNc1ncnc2c1ccn2[C@@H]1C[C@H](COc2ccc3cc(Br)c(N)nc3c2)[C@@](C)(O)[C@H]1O [Example 93, (1R,2S,3R,5R)-5-(((2-amino-3-bromoquinolin-7-yl)oxy)methyl)-1-methyl-3-(4-(methylamino)-7H-pyrrolo[2,3-d]pyrimidin-7-yl)cyclopentane-1,2-diol]
0.3		Nc1nc2cc(C[C@@H]3CC[C@@]4(O)[C@@H]3C[C@@H](n3cc(F)c5c(N)ncnc53)[C@@H]4O)ccc2cc1Cl [Example 34, (1S,2R,3aR,4S,6aR)-4-((2-amino-3-chloroquinolin-7-yl)methyl)-2-(4-amino-5-fluoro-7H-pyrrolo[2,3-d]pyrimidin-7-yl)hexahydropentalene-1,6a(1H)-diol]
0.4		Cc1nc(N)c2ccn([C@@H]3O[C@@H]4[C@@H](Oc5ccc6cc(Br)c(N)nc6c5)CC[C@]4(O)[C@H]3O)c2n1 [Example 63, (2R,3R,3aS,6S,6aR)-2-(4-amino-2-methyl-7H-pyrrolo[2,3-d]pyrimidin-7-yl)-6-((2-amino-3-bromoquinolin-7-yl)oxy)hexahydro-3aH-cyclopenta[b]furan-3,3a-diol]
0.6		Cc1ncnc2c1ccn2[C@@H]1O[C@@H]2[C@@H](Oc3ccc4cc(Cl)c(N)nc4c3)CC[C@]2(O)[C@H]1O [Example 112, (2R,3R,3aS,6S,6aR)-6-((2-amino-3-chloroquinolin-7-yl)oxy)-2-(4-methyl-7H-pyrrolo[2,3-d]pyrimidin-7-yl)hexahydro-2H-cyclopenta[b]furan-3,3a-diol]
33.9	31600	Cc1ncnc2c1ccn2[C@@H]1O[C@@H]2[C@H](Oc3ccc4cc(Br)c(N)nc4c3)CC[C@]2(O)[C@H]1O [Example 129, (2R,3R,3aS,6R,6aR)-6-((2-amino-3-bromoquinolin-7-yl)oxy)-2-(4-methyl-7H-pyrrolo[2,3-d]pyrimidin-7-yl)hexahydro-3aH-cyclopenta[b]furan-3,3a-diol]
3.9	3310	Nc1nc2cc(CC3OC[C@@]4(O)C3C[C@@H](n3ccc5c(N)ncnc53)[C@@H]4O)ccc2cc1Br (stereo partly drawn) [Example 132, (3aS,4S,5R)-1-((2-amino-3-bromoquinolin-7-yl)methyl)-5-(4-amino-7H-pyrrolo[2,3-d]pyrimidin-7-yl)tetrahydro-1H-cyclopenta[c]furan-3a,4(3H)-diol]
